Experimental data reported in patent EP0726261A1, “Herbidical 1,2,4 thiadiazoles” (American Cyanamid Company, priority 1995, dated 1996).

Tests used:
Assay type in all cases: in vivo
Glycine max [1] = test: Herbicidal activity, postemergence test (Example 66); conditions: post; 1000 g/ha; assessed visually twenty days after spraying
Experimental: (§1) To evaluate their herbicidal activity, compounds according to the invention are tested using a representative range of plants: ZEAMX Zea mays ORYSA Oryza sativa GLXMA Glycine max BEAVA Beta vulgaris LIUUT Linum usitatissimum AVEFA Avena fatua ECHCG Echinochloa crus-galli SINAL Sinapsis alba
(§2) The tests fall into two categories, preemergence and postemergence. The preemergence tests involve spraying a liquid formulation of the compound onto the soil in which the seeds of the plant species mentioned above have recently been sown. The postemergence tests involve spraying a liquid formulation of the compound onto seedling plants of the above species.
(§3) The soil used in the tests is a prepared horticultural loam.
(§4) The formulations used in the tests are prepared from solutions of the test compounds in acetone containing 0.4% by weight of an alkylphenol/ethylene oxide condensate available under the trademark TRITON X-155. These acetone solutions are diluted with water and the resulting formulations applied at dosage levels corresponding to 1000 g of active material per hectare in a volume equivalent to 900 litres per hectare.
(§5) In the preemergence tests, untreated sown soil, and in the postemergence tests, untreated soil bearing seedling plants, are used as controls.
(§6) The herbicidal effects of the test compounds are assessed visually twenty days after spraying the foliage and the soil and are recorded on a 0-9 scale. A rating of 0 indicates growth as untreated control, a rating of 9 indicates death. An increase of 1 unit on the linear scale approximates to an 11% increase in the level of effect.

Avena fatua [2] = test: as above; design: key: A rating of 0 indicates growth as untreated control; a rating of 9 indicates death; conditions: post; 1000 g/ha; assessed visually twenty days after spraying
Experimental: as §1, §2, §3, §4, §5, §6

Sinapsis alba [3] = test: as above; design: key: A rating of 0 indicates growth as untreated control; a rating of 9 indicates death; conditions: post; 1000 g/ha; assessed visually twenty days after spraying
Experimental: as §1, §2, §3, §4, §5, §6

Linum usitatissimum [4] = test: as above; design: key: A rating of 0 indicates growth as untreated control; a rating of 9 indicates death; conditions: post; 1000 g/ha; assessed visually twenty days after spraying
Experimental: as §1, §2, §3, §4, §5, §6

Zea mays [5] = test: as above; design: key: A rating of 0 indicates growth as untreated control; a rating of 9 indicates death; conditions: post; 1000 g/ha; assessed visually twenty days after spraying
Experimental: as §1, §2, §3, §4, §5, §6

Oryza sativa [6] = test: as above; design: key: A rating of 0 indicates growth as untreated control; a rating of 9 indicates death; conditions: post; 1000 g/ha; assessed visually twenty days after spraying
Experimental: as §1, §2, §3, §4, §5, §6

Beta vulgaris [7] = test: as above; design: key: A rating of 0 indicates growth as untreated control; a rating of 9 indicates death; conditions: post; 1000 g/ha; assessed visually twenty days after spraying
Experimental: as §1, §2, §3, §4, §5, §6

Echinochloa crus-galli [8] = test: as above; design: key: A rating of 0 indicates growth as untreated control; a rating of 9 indicates death; conditions: post; 1000 g/ha; assessed visually twenty days after spraying
Experimental: as §1, §2, §3, §4, §5, §6

Avena fatua [9] = test: Herbicidal activity, preemergence test (Example 66); design: key: A rating of 0 indicates growth as untreated control; a rating of 9 indicates death; conditions: pre; 1000 g/ha; assessed visually twenty days after spraying
Experimental: as §1, §2, §3, §4, §5, §6

Sinapsis alba [10] = test: as above; design: key: A rating of 0 indicates growth as untreated control; a rating of 9 indicates death; conditions: pre; 1000 g/ha; assessed visually twenty days after spraying
Experimental: as §1, §2, §3, §4, §5, §6

Linum usitatissimum [11] = test: as above; design: key: A rating of 0 indicates growth as untreated control; a rating of 9 indicates death; conditions: pre; 1000 g/ha; assessed visually twenty days after spraying
Experimental: as §1, §2, §3, §4, §5, §6

Zea mays [12] = test: as above; design: key: A rating of 0 indicates growth as untreated control; a rating of 9 indicates death; conditions: pre; 1000 g/ha; assessed visually twenty days after spraying
Experimental: as §1, §2, §3, §4, §5, §6

Oryza sativa [13] = test: as above; design: key: A rating of 0 indicates growth as untreated control; a rating of 9 indicates death; conditions: pre; 1000 g/ha; assessed visually twenty days after spraying
Experimental: as §1, §2, §3, §4, §5, §6

Beta vulgaris [14] = test: as above; design: key: A rating of 0 indicates growth as untreated control; a rating of 9 indicates death; conditions: pre; 1000 g/ha; assessed visually twenty days after spraying
Experimental: as §1, §2, §3, §4, §5, §6

Echinochloa crus-galli [15] = test: as above; design: key: A rating of 0 indicates growth as untreated control; a rating of 9 indicates death; conditions: pre; 1000 g/ha; assessed visually twenty days after spraying
Experimental: as §1, §2, §3, §4, §5, §6

Glycine max [16] = test: as above; design: key: A rating of 0 indicates growth as untreated control; a rating of 9 indicates death; conditions: pre; 1000 g/ha; assessed visually twenty days after spraying
Experimental: as §1, §2, §3, §4, §5, §6

Alopecurus myosuroides [17] = test: Preemergence herbicidal activity (Example 67); conditions: pre, 800 g/ha
Outline: (§7)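 At a rate of 800g/ha, an aqueous-diluted acetone solution of compound with 0.5% nonionic alkylphenol/ethylene oxide surfactant is applied to the soil of the cups. Greenhouse-held cups are scored on a rating system at about 1-3 weeks.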

Hordeum vulgare [18] = test: Postemergence herbicidal activity (Example 67); conditions: pos, 800 g/ha
Outline: (§8)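 Rate: 800g/ha, sprayed postemergence in 400 L/ha onto seedlings aged 3-6 weeks. Formulation was acetone/0.5% TRITON X-155 diluted in water. Readout: visual rating, 10-21 days after treatment.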

Helianthus annuus [19] = test: Postemergence herbicidal activity (Example 67); conditions: pos, 800 g/ha
Outline: as §8

Veronica persica [20] = test: Postemergence herbicidal activity (Example 67); conditions: pos, 800 g/ha
Outline: as §8

Setaria viridis [21] = test: Postemergence herbicidal activity (Example 67); conditions: pos, 800 g/ha
Outline: as §8

Zea mays [22] = test: Postemergence herbicidal activity (Example 67); conditions: pos, 800 g/ha
Outline: as §8

Triticum aestivum [23] = test: Postemergence herbicidal activity (Example 67); conditions: pos, 800 g/ha
Outline: as §8

Amaranthus retroflexus [24] = test: Postemergence herbicidal activity (Example 67); conditions: pos, 800 g/ha
Outline: as §8

Abutilon theophrasti [25] = test: Postemergence herbicidal activity (Example 67); conditions: pos, 800 g/ha
Outline: as §8

Ipomoea hederacea [26] = test: Postemergence herbicidal activity (Example 67); conditions: pos, 800 g/ha
Outline: as §8

Galium aparine [27] = test: Postemergence herbicidal activity (Example 67); conditions: pos, 800 g/ha
Outline: as §8

Chenopodium album [28] = test: Postemergence herbicidal activity (Example 67); conditions: pos, 800 g/ha
Outline: as §8

Alopecurus myosuroides [29] = test: Postemergence herbicidal activity (Example 67); conditions: pos, 800 g/ha
Outline: as §8

Setaria viridis [30] = test: Preemergence herbicidal activity (Example 67); conditions: pre, 800 g/ha
Outline: as §7

Triticum aestivum [31] = test: Preemergence herbicidal activity (Example 67); conditions: pre, 800 g/ha
Outline: as §7

Hordeum vulgare [32] = test: Preemergence herbicidal activity (Example 67); conditions: pre, 800 g/ha
Outline: as §7

Helianthus annuus [33] = test: Preemergence herbicidal activity (Example 67); conditions: pre, 800 g/ha
Outline: as §7

Veronica persica [34] = test: Preemergence herbicidal activity (Example 67); conditions: pre, 800 g/ha
Outline: as §7

Zea mays [35] = test: Preemergence herbicidal activity (Example 67); conditions: pre, 800 g/ha
Outline: as §7

Amaranthus retroflexus [36] = test: Preemergence herbicidal activity (Example 67); conditions: pre, 800 g/ha
Outline: as §7

Abutilon theophrasti [37] = test: Preemergence herbicidal activity (Example 67); conditions: pre, 800 g/ha
Outline: as §7

Ipomoea hederacea [38] = test: Preemergence herbicidal activity (Example 67); conditions: pre, 800 g/ha
Outline: as §7

Galium aparine [39] = test: Preemergence herbicidal activity (Example 67); conditions: pre, 800 g/ha
Outline: as §7

Chenopodium album [40] = test: Preemergence herbicidal activity (Example 67); conditions: pre, 800 g/ha
Outline: as §7

Row | SMILES | ALO MY rating (Alopecurus myosuroides [17]) | HOR VW rating (Hordeum vulgare [18]) | HEL AN rating (Helianthus annuus [19]) | VER PE rating (Veronica persica [20]) | SET VI rating (Setaria viridis [21]) | ZEA MX rating (Zea mays [22]) | TRZ AW rating (Triticum aestivum [23]) | AMA RE rating (Amaranthus retroflexus [24]) | ABU TH rating (Abutilon theophrasti [25]) | IPO HE rating (Ipomoea hederacea [26]) | GAL AP rating (Galium aparine [27]) | CHE AL rating (Chenopodium album [28]) | ALO MY rating (Alopecurus myosuroides [29]) | SET VI rating (Setaria viridis [30]) | TRZ AW rating (Triticum aestivum [31]) | HOR VW rating (Hordeum vulgare [32]) | HEL AN rating (Helianthus annuus [33]) | VER PE rating (Veronica persica [34]) | ZEA MX rating (Zea mays [35]) | AMA RE rating (Amaranthus retroflexus [36]) | also measured
1 | CC(C)c1nsc(C(=O)NC(C)c2cccs2)n1 (racemic) [Example 1, (R/S)-3-Isopropyl-[1,2,4]thiadiazole-5-carboxylic acid, [1-(2-thienyl)ethyl]amide] |  |  |  |  |  |  |  |  |  |  |  |  |  |  |  |  |  |  |  |  | herbicidal effects on a 0-9 scale, GLXMA (Glycine max [1]): 6; herbicidal effects on a 0-9 scale, AVEFA (Avena fatua [2]): 5; herbicidal effects on a 0-9 scale, SINAL (Sinapsis alba [3]): 9; herbicidal effects on a 0-9 scale, LIUUT (Linum usitatissimum [4]): 9; herbicidal effects on a 0-9 scale, ZEAMX (Zea mays [5]): 0; herbicidal effects on a 0-9 scale, ORYSA (Oryza sativa [6]): 0; herbicidal effects on a 0-9 scale, BEAVA (Beta vulgaris [7]): 9; herbicidal effects on a 0-9 scale, ECHCG (Echinochloa crus-galli [8]): 9; herbicidal effects on a 0-9 scale, AVEFA (Avena fatua [9]): 2; herbicidal effects on a 0-9 scale, SINAL (Sinapsis alba [10]): 7; herbicidal effects on a 0-9 scale, LIUUT (Linum usitatissimum [11]): 2; herbicidal effects on a 0-9 scale, ZEAMX (Zea mays [12]): 0; herbicidal effects on a 0-9 scale, ORYSA (Oryza sativa [13]): 0; herbicidal effects on a 0-9 scale, BEAVA (Beta vulgaris [14]): 7; herbicidal effects on a 0-9 scale, ECHCG (Echinochloa crus-galli [15]): 5; herbicidal effects on a 0-9 scale, GLXMA (Glycine max [16]): 0
2 | C[C@H](NC(=O)c1nsc(-c2ccccc2F)n1)c1ccccc1 [Example 56, (S)-5-(2-Fluorophenyl)-[1,2,4]thiadiazole-3-carboxylic acid, 1-(phenylethyl)amide] | 0 | 5 (45-64%) | 8 (91-99%) | 7 (80-90%) | 8 (91-99%) | 4 (30-44%) | 5 (45-64%) | 7 (80-90%) | 9 (100% effect) | 8 (91-99%) | 6 (65-79%) | 4 (30-44%) | 5 (45-64%) | 2 (6-15%) | 0 | 0 | 0 | 4 (30-44%) | 0 | 5 (45-64%) | ABU TH rating (Abutilon theophrasti [37]): 2 (6-15%); IPO HE rating (Ipomoea hederacea [38]): 3 (16-29%); GAL AP rating (Galium aparine [39]): 0; CHE AL rating (Chenopodium album [40]): 2 (6-15%)
3 | O=C(Nc1ccc(F)cc1F)c1nsc(-c2cccc(C(F)(F)F)c2)n1 [Example 62] | 3 (16-29%) | 0 | 0 | 0 | 5 (45-64%) | 1 (1-5%) | 1 (1-5%) | 0 | 0 | 1 (1-5%) | 0 | 1 (1-5%) | 0 | 0 | 0 | 0 | 0 | 0 | 0 | 0 | ABU TH rating (Abutilon theophrasti [37]): 1 (1-5%); IPO HE rating (Ipomoea hederacea [38]): 3 (16-29%); GAL AP rating (Galium aparine [39]): 0; CHE AL rating (Chenopodium album [40]): 0
4 | O=C(Nc1ccc(F)cc1)c1nsc(-c2cccc(C(F)(F)F)c2)n1 [Example 63] | 4 (30-44%) | 1 (1-5%) | 0 | 0 | 3 (16-29%) | 0 | 0 | 0 | 1 (1-5%) | 0 | 0 | 0 | 0 | 2 (6-15%) | 2 (6-15%) | 0 | 0 | 0 | 0 | 0 | ABU TH rating (Abutilon theophrasti [37]): 0; IPO HE rating (Ipomoea hederacea [38]): 3 (16-29%); GAL AP rating (Galium aparine [39]): 0; CHE AL rating (Chenopodium album [40]): 0
5 | O=C(Nc1ccccc1)c1nsc(-c2cccc(C(F)(F)F)c2)n1 [Example 64] | 0 | 1 (1-5%) | 0 | 0 | 4 (30-44%) | 1 (1-5%) | 2 (6-15%) | 0 | 1 (1-5%) | 0 | 0 | 0 | 2 (6-15%) | 2 (6-15%) | 2 (6-15%) | 0 | 0 | 0 | 0 | 0 | ABU TH rating (Abutilon theophrasti [37]): 0; IPO HE rating (Ipomoea hederacea [38]): 3 (16-29%); GAL AP rating (Galium aparine [39]): 0; CHE AL rating (Chenopodium album [40]): 0
6 | O=C(Nc1cccc(F)c1)c1nsc(-c2cccc(C(F)(F)F)c2)n1 [Example 65] | 4 (30-44%) | 1 (1-5%) | 0 | 0 | 0 | 0 | 3 (16-29%) | 0 | 0 | 1 (1-5%) | 0 | 0 | 1 (1-5%) | 0 | 2 (6-15%) | 0 | 0 | 0 | 0 | 0 | ABU TH rating (Abutilon theophrasti [37]): 3 (16-29%); IPO HE rating (Ipomoea hederacea [38]): 3 (16-29%); GAL AP rating (Galium aparine [39]): 0; CHE AL rating (Chenopodium album [40]): 1 (1-5%)
